Earlier results in patent US6051591A, “Diazabicyclooctane derivatives” (Merck Sharp & Dohme Ltd., priority 1995, dated 2000).

Tests used:
[1] = therapeutic doses
[2] = system: human 5-HT1Dα and 5-HT1Dβ receptor subtypes; settings: cf. WO-A-91/17174, Table 1

In the case of `CNS(=O)(=O)Cc1ccc2[nH]cc(CCN(C)C)c2c1` [sumatriptan], the “adverse cardiovascular events in humans” value [1] is given as “certain adverse cardiovascular events” and the “discrimination between human 5-HT1Dα and 5-HT1Dβ receptor subtypes” value [2] is given as “barely discriminates”.
